Series [1] addresses T1, recombinant purified human BTK (Homo sapiens, UniProt Q06187).
T1 construct: purchased SignalChem, USA
Description: In vitro BTK kinase assay on ADP Glo platform. It counts as biochemical. To be noted: 2 hr room temperature, read-out: In-vitro BTK inhibitory activity: IC50. A digest of the protocol:
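Recombinant human BTK (3 ng/reaction) with compound dilutions in Tris pH 7.5, MgCl2/MnCl2, BSA, DTT; started with 50 µM ATP (final) and polyGln4Tyr1 substrate, 2 h at room temperature. ADP formed detected by ADP-Glo luminescence; IC50 by nonlinear fit versus uninhibited enzyme as 100%.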
In general terms: ADP-Glo turns the ADP formed in a reaction into a luminescent signal.

Series [2] has as its target T2, CYP 2C8 (Homo sapiens, UniProt P10632).
T2 construct: from tissue; host or cells: human liver microsomes
T2 sequence (P10632 1-490): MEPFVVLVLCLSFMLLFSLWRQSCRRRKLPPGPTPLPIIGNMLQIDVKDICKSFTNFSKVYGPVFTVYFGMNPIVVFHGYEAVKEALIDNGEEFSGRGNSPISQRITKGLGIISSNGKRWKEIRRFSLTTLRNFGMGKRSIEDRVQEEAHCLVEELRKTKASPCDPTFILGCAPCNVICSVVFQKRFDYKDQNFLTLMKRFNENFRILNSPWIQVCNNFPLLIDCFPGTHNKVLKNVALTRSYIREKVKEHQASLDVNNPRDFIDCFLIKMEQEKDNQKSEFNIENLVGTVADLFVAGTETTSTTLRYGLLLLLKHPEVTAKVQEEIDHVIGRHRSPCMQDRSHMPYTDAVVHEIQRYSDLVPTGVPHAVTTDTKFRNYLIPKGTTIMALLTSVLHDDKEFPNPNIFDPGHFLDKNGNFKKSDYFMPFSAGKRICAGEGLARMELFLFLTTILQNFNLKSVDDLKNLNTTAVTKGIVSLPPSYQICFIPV
The series can be described thus: CYP inhibition in human liver microsomes, 2C8. It counts as in vitro ADME. As to conditions: pH 7.4, @ 10 μM concn. A digest of the protocol:
(§1)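 Test compounds at […] and 10 μM were incubated in duplicate with human liver microsomes, probe substrate and 1 mM NADPH in 100 mM phosphate buffer pH 7.4 at 37° C. Reactions were stopped with acetonitrile containing internal standard, and the marker-reaction metabolite was quantified by LC-MS/MS.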
In general terms: Liver microsomes are vesicles of endoplasmic reticulum, rich in cytochrome P450 enzymes.

Series [3] concerns the target T3, CYP 2C19 (Homo sapiens, UniProt P33261).
T3 construct: from tissue; host or cells: human liver microsomes
Description: CYP inhibition in human liver microsomes, 2C19. It counts as in vitro ADME. As to conditions: pH 7.4, @ 10 μM concn. A digest of the protocol:
as §1

In series [4] the target is T4, CYP 1A2 (Homo sapiens, UniProt P05177).
T4 construct: from tissue; host or cells: human liver microsomes
T4 sequence (P05177 1-516): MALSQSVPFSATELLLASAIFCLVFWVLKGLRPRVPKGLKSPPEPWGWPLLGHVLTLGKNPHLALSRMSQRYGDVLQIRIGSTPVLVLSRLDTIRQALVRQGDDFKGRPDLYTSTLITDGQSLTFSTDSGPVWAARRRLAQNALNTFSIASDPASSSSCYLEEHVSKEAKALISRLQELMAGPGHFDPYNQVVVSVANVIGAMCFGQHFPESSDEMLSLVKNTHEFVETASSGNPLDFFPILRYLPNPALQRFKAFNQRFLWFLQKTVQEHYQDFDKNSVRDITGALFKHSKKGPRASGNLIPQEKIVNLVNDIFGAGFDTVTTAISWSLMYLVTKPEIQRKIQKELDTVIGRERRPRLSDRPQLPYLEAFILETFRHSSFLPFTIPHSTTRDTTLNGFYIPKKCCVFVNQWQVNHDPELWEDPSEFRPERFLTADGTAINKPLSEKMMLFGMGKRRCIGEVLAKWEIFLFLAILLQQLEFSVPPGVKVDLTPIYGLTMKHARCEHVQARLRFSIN
The series can be described thus: CYP inhibition in human liver microsomes, 1A2. It counts as in vitro ADME. As to conditions: pH 7.4, @ 10 μM concn. In short, it runs like this: as §1

Series [5] deals with T5, CYP 3A4 (Homo sapiens, UniProt P08684).
T5 construct: from tissue; host or cells: human liver microsomes
T5 sequence (P08684 whole entry): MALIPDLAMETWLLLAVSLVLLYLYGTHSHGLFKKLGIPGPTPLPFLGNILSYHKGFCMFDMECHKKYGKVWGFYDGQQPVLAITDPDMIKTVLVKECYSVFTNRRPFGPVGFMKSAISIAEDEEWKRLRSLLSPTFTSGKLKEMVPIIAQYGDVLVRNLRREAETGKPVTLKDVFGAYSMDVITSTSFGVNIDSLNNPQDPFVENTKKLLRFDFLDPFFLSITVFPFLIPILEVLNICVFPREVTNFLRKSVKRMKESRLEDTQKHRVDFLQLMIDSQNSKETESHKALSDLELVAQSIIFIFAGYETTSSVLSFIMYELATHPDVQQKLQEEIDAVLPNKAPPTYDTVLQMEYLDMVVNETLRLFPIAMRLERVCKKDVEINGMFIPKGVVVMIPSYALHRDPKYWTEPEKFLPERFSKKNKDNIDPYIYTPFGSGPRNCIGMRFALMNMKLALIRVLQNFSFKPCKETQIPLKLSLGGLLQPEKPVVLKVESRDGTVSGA
The series can be described thus: CYP inhibition in human liver microsomes, 3A4. It counts as in vitro ADME. As to conditions: pH 7.4, @ 10 μM concn. In short, it runs like this: as §1

For series [6], the target named is T6, CYP 2C9 (Homo sapiens, UniProt P11712).
T6 construct: from tissue; host or cells: human liver microsomes
T6 sequence (P11712 whole entry): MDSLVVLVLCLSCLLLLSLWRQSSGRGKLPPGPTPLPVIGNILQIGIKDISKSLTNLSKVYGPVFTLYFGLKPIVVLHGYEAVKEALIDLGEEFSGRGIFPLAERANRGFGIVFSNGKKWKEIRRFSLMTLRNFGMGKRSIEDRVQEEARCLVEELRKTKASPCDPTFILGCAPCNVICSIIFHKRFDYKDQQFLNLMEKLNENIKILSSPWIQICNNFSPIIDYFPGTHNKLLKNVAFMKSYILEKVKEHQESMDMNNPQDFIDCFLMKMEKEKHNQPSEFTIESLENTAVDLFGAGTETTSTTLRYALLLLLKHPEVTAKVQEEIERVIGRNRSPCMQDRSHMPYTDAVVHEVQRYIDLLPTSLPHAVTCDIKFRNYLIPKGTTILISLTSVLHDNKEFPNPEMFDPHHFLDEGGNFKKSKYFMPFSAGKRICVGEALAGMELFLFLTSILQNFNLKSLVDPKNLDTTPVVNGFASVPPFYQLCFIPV
Description: CYP inhibition in human liver microsomes, 2C9. It counts as in vitro ADME. To be noted: pH 7.4, @ 10 μM concn. A digest of the protocol:
as §1

Series [7] addresses T7, CYP 2D6 (Homo sapiens, UniProt P10635).
T7 construct: from tissue; host or cells: human liver microsomes
The series can be described thus: CYP inhibition in human liver microsomes, 2D6. It counts as in vitro ADME. As to conditions: pH 7.4, @ 10 μM concn. In short, it runs like this: as §1

The structures appear in SMILES notation.

T3 sequence (P33261 whole entry): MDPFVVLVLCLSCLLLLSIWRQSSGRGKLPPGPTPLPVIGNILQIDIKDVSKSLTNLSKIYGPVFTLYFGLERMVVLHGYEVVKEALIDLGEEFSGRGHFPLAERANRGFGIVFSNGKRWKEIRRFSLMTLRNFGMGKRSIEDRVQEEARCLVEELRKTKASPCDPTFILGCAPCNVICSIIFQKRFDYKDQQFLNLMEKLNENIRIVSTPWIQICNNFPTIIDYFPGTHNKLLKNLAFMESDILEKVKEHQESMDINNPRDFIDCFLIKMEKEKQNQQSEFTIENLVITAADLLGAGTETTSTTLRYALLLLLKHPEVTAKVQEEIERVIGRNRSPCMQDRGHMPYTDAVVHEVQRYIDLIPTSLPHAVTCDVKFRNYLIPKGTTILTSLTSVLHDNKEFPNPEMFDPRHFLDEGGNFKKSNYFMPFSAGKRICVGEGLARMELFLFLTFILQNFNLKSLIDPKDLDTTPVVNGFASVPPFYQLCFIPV
T7 sequence (P10635 whole entry): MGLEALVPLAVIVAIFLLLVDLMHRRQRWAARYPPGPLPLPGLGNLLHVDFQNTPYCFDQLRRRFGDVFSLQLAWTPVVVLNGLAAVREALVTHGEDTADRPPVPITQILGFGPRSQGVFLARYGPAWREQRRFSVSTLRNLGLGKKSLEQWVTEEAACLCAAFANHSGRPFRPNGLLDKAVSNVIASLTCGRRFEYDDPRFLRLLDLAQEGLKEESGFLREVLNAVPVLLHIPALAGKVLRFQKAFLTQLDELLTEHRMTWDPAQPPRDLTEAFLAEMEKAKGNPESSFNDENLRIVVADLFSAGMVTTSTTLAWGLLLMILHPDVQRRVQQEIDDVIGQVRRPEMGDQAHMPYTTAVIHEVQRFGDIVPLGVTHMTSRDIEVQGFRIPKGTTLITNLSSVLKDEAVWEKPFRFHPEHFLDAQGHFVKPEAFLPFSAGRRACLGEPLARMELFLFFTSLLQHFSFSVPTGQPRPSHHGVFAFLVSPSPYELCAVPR
T1 sequence (Q06187 whole entry): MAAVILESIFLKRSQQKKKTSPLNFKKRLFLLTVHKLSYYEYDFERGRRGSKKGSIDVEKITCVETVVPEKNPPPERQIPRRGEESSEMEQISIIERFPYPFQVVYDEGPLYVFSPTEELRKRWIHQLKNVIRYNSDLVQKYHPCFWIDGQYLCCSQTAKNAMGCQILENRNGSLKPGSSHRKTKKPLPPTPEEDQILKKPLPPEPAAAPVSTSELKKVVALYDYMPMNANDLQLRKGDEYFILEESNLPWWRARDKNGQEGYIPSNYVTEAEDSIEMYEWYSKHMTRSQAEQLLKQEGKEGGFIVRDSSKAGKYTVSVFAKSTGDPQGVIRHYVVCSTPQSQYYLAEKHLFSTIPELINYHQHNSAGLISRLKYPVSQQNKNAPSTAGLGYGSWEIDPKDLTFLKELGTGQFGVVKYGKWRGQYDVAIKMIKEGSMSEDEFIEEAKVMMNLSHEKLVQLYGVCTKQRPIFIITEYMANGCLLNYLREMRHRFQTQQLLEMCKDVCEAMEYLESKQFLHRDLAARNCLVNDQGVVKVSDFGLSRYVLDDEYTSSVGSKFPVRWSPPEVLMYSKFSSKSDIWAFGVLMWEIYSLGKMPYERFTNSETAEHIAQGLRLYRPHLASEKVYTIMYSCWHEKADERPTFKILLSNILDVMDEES

As usually defined, the IC50 is the concentration at which inhibition is half-maximal. Broadly, the inhibition is the relative decrease from the control value, in per cent. Read a low inhibition as a weak effect. With `C=CC(=O)N1CC2CC(n3nc(-c4ccc(-c5nnc(-c6ccccn6)s5)cc4)c4c(N)ncnc43)CC2C1` (centres unmarked) [Compound 39, 1-(5-(4-amino-3-(4-(5-(pyridin-2-yl)-1,3,4-thiadiazol-2-yl)phenyl)-1H-pyrazolo [3,4-d]pyrimidin-1-yl)hexahydrocyclopenta[c]pyrrol-2(1H)-yl)prop-2-en-1-one], in series [1], the IC50 was found to be 1.4 nM. The inhibition at 10 μM in series [2], in series [3], in series [4], in series [5], in series [6] and in series [7] was less than 50% each time.
Consider `CO/C(=N\c1cc(C)ccn1)c1ccc(-c2nn(C3CC4CN(C(=O)/C=C/CN(C)C)CC4C3)c3ncnc(N)c23)cc1` (centres unmarked) [Compound 50, (Z)-methyl 4-(4-amino-1-(2-((E)-4-(dimethylamino)but-2-enoyl)octahydrocyclopenta[c]pyrrol-5-yl)-1H-pyrazolo[3,4-d]pyrimidin-3-yl)-N-(4-methylpyridin-2-yl) benzimidate], for which the IC50 in series [1] came out at 19 nM. Also, the inhibition at 10 μM was less than 50% in series [2]; less than 50% in series [3]; less than 50% in series [4]; more than 50% in series [5]; less than 50% in series [6]; more than 50% in series [7].
As to `Cc1ccnc(NC(=O)c2ccc(-c3nn(C4CC5CN(C(=O)/C=C/CN(C)C)CC5C4)c4ncnc(N)c34)cc2)c1` (centres unmarked) [Compound 45, (E)-4-(4-amino-1-(2-(4-(dimethylamino)but-2-enoyl)octahydrocyclopenta[c]pyrrol-5-yl)-1H-pyrazolo[3,4-d]pyrimidin-3-yl)-N-(4-methylpyridin-2-yl) benzamide], the IC50 in series [1] came to 10 nM. Besides, the inhibition at 10 μM is less than 50% in series [2]; less than 50% in series [3]; more than 50% in series [4]; less than 50% in series [5]; less than 50% in series [6]; less than 50% in series [7].
With `C=CC(=O)N1CC2CC(n3nc(-c4ccc(C(=O)Nc5cc(C(F)(F)F)ccn5)cc4)c4c(N)ncnc43)CC2C1` (centres unmarked) [Compound 40, 4-(1-(2-acryloyloctahydrocyclopenta[c]pyrrol-5-yl)-4-amino-1H-pyrazolo[3,4-d]pyrimidin-3-yl)-N-(4-(trifluoromethyl)pyridin-2-yl)benzamide], in series [1], the IC50 came out at 6 nM. Besides, the inhibition at 10 μM in series [2] was less than 50%; in series [3], less than 50%; in series [4], more than 50%; in series [5], less than 50%; in series [6], more than 50%; in series [7], less than 50%.
In the case of `CN(C)C/C=C/C(=O)N1CC2CC(n3nc(-c4ccc(-c5nnc(-c6cnccn6)s5)cc4)c4c(N)ncnc43)CC2C1` (centres unmarked) [Compound 56, (E)-1-(5-(4-amino-3-(4-(5-(pyrazin-2-yl)-1,3,4-thiadiazol-2-yl)phenyl)-1H-pyrazolo[3,4-d]pyrimidin-1-yl)hexahydrocyclopenta[c]pyrrol-2(1H)-yl)-4-(dimethylamino)but-2-en-1-one], the 50% inhibitory concentration (IC50) in series [1] amounted to 50 nM. The inhibition at 10 μM in series [2] is more than 50%; in series [3] it was less than 50%; in series [4] it was more than 50%; in series [5], more than 50%; in series [6] it was more than 50%; in series [7], less than 50%.
With `C=CC(=O)N1CC2CC(n3nc(-c4ccc(Oc5cccnc5)cc4)c4c(N)ncnc43)CC2C1` (centres unmarked) [Compound 52, 1-(5-(4-amino-3-(4-(pyridin-3-yloxy)phenyl)-1H-pyrazolo[3,4-d]pyrimidin-1-yl)hexahydrocyclopenta[c]pyrrol-2(1H)-yl)prop-2-en-1-one], the IC50 in series [1] was found to be 162 nM. In addition, the inhibition at 10 μM in series [2] was less than 50%; in series [3], more than 50%; in series [4], more than 50%; in series [5], more than 50%; in series [6], less than 50%; in series [7] it was less than 50%.
For `C=CC(=O)N1CC2CC(n3nc(-c4ccc(NC(=O)c5ccccc5)cc4)c4c(N)ncnc43)CC2C1` (centres unmarked) [Compound 38, N-(4-(1-(2-acryloyloctahydrocyclopenta[c]pyrrol-5-yl)-4-amino-1H-pyrazolo[3,4-d]pyrimidin-3-yl)phenyl)benzamide], the IC50 in series [1] came to 17 nM. For the same compound, the inhibition at 10 μM in series [2] is less than 50%; in series [3], less than 50%; in series [4], less than 50%; in series [5] it was less than 50%; in series [6], less than 50%; in series [7], more than 50%.
Regarding `CN(C)C/C=C/C(=O)N1CC2CC(n3nc(-c4ccc(Oc5ccccc5)cc4)c4c(N)ncnc43)CC2C1` (centres unmarked) [Compound 24, (E)-1-(5-(4-amino-3-(4-phenoxyphenyl)-1H-pyrazolo[3,4-d]pyrimidin-1-yl)hexahydrocyclopenta[c]pyrrol-2(1H)-yl)-4-(dimethylamino)but-2-en-1-one], the half-maximal inhibitory concentration (IC50) in series [1] was 2.5 nM. Also, the inhibition at 10 μM in series [2], in series [3], in series [4], in series [5], in series [6] and in series [7] was less than 50% each time.
Take `C=CC(=O)N1CC2CN(c3ccc(Cn4nc(-c5ccc(Oc6ccccc6)cc5)c5c(N)ncnc54)cn3)CC2C1` (centres unmarked) [Compound 3, 1-(5-(5-((4-amino-3-(4-phenoxyphenyl)-1H-pyrazolo[3,4-d]pyrimidin-1-yl)methyl)pyridin-2-yl)hexahydropyrrolo[3,4-c]pyrrol-2(1H)-yl)prop-2-en-1-one]: the IC50 in series [1] was determined as 8 nM. The inhibition at 10 μM is less than 50% in series [2]; less than 50% in series [3]; less than 50% in series [4]; less than 50% in series [5]; more than 50% in series [6]; less than 50% in series [7].
Consider `N#C/C(=C\C1CC1)C(=O)N1CC2CC(n3nc(-c4ccc(Oc5ccccc5)cc4)c4c(N)ncnc43)CC2C1` (centres unmarked) [Compound 28, (E)-2-(5-(4-amino-3-(4-phenoxyphenyl)-1H-pyrazolo[3,4-d]pyrimidin-1-yl)octahydrocyclopenta[c]pyrrole-2-carbonyl)-3-cyclopropylacrylonitrile], for which, in series [1], the IC50 turned out to be 16 nM. Besides, the inhibition at 10 μM in series [2] is less than 50%; in series [3], less than 50%; in series [4], less than 50%; in series [5] it was more than 50%; in series [6], more than 50%; in series [7], less than 50%.
Regarding `C=CC(=O)N1CC2CC(n3nc(-c4ccc5nc(C)sc5c4)c4c(N)ncnc43)CC2C1` (centres unmarked) [Compound 5, 1-(5-(4-amino-3-(2-methylbenzo[d]thiazol-6-yl)-1H-pyrazolo[3,4-d]pyrimidin-1-yl)hexahydrocyclopenta[c]pyrrol-2(1H)-yl)prop-2-en-1-one], the IC50 in series [1] came to 8 nM. Besides, the inhibition at 10 μM in series [2] is less than 50%; in series [3], less than 50%; in series [4], less than 50%; in series [5], more than 50%; in series [6] it was less than 50%; in series [7], less than 50%.

Source of the values: US9840509B2, “Heterocyclic compounds” (CADILA HEALTHCARE LIMITED, priority 2014, dated 2017).
